# Measured values taken from patent US20120225862A1, “HETEROARYL BENZAMIDES, COMPOSITIONS AND METHODS OF USE” (AUCKLAND UNIVSERVICES LIMITED, priority 2009, published 2012).
# Legend:
# [1] = tested on: RCC4 and RCC4/VHL cells; experiment: Apoptosis (DAPI nuclear condensation, Annexin V / propidium iodide FACS); assay type: cell-based, human
# Protocol: (§1) (A) Clonogenic survival of RCC4 and RCC4/VHL treated with […] (5 μM)(*p<0.05). All error bars represent the standard error of the mean. […] RCC4 and RCC4/VHL cells were treated with increasing concentrations of compound 47 (1.25, 2.5 and 5 μM), a negative control (DMSO) and a positive control (4-(pyridin-4-yl)-N-(m-tolyl)thiazol-2-amine). Cells were lysed and probed for LC3, a marker of autophagy, or α-tubulin (loading control). […] RCC4 and RCC4/VHL cells were treated with vehicle, increasing concentrations of compound 47, and camptothecin. Cells were stained with DAPI and nuclear condensation was examined by fluorescence microscopy. (D) RCC4 cells were treated with compound 47 (5 μM) for the indicated time and stained with Annexin V and propidium iodide and subjected to FACS analysis. […] RCC4 and RCC4/VHL cells were subjected to increasing concentrations of compound 47 (1.25, 2.5, and 5 μM), a negative control (DMSO), and a positive control (doxorubicin). Cells were lysed and subjected to Western blot with the indicated antibodies.
# (§2) However, RCC cells without VHL undergo a necrotic cell death in response to compound 47 as measured by the ability of the cells to exclude trypan blue, an indicator of cell membrane integrity.
# [2] = tested on: hexokinase; experiment: Hexokinase activity in whole cell lysates, RCC4/VHL; assay type: cell-based, human; conditions: 5 μM
# Protocol: (§3) All cells were grown in DMEM+10% FCS. ACHN and ACHN shVHL were a kind gift from George V. Thomas (UCLA). HIF overexpressing clones were described previously. Transfection of RNA oligos were performed with DnarmaFECT Reagent 1 (Dharmcon), according to manufacturer's directions. ON-TARGETplus SMART pools against HIF-1β/ARNT were purchased from Dharmacon. Glut1 was detected with anti-GLUT1 antibody from NeoMarkers/LabVision/Fisher. Pyruvate/lactate levels and hexokinase activity were both measured by fluorometric assay (BioVision and Sigma-Aldrich, respectively). ATP levels were measured by bioluminescence assay (ATP Determination Kit from Molecular Probes/Invitrogen). In vitro kinase activities were performed by Millipore KinaseProfiler. Affi-Gel 10 (BioRad) activated affinity media was coupled to analogs to generate immobilized affinity linkers.
# We then examined whether this decrease in glycolysis in response to compound 47 was due to a decrease in glucose uptake or whether compound 47 inhibited a particular glycolytic enzyme. To test this, we measured glucose uptake using 2-deoxy-D-[^3H] glucose, a non-hydrolyzable, radioactive glucose analog, following two days of treatment with compound 47. […] RCC4/VHL cells had lower baseline levels of glucose uptake compared to RCC4 cells and were unaffected by treatment with compound 47. […]
# [3] = biological target: T1, JNK1α1 (Homo sapiens, UniProt P45983); experiment: In vitro kinase activity (Millipore KinaseProfiler): JNK1α1; assay type: biochemical; conditions: no head or unit printed
# T1 construct: purchased Millipore (KinaseProfiler service)
# Protocol: as §3
# (§4) We next wanted to investigate the differential glucose uptake between RCCs with and without VHL treated with compound 47 that subsequently lead to the selective death of VHL-deficient cells. We first examined the message levels of the two main glucose transporters, GLUT1 and GLUT2 by quantitative real-time PCR. GLUT1 is an inducible, high-affinity glucose transporter, while GLUT2 is the glucose transporter responsible for basal glucose uptake. […] Cells deficient in VHL had very low levels of GLUT2 that could barely be detected (FIG. 3J). […]
# [4] = biological target: T2, DAPK1 (Homo sapiens, UniProt P53355); experiment: In vitro kinase activity (Millipore KinaseProfiler): DAPK1; assay type: biochemical; conditions: no head or unit printed
# T2 construct: purchased Millipore (KinaseProfiler service)
# Protocol: as §3, §4
# [5] = tested on: p53; experiment: DNA damage response (Western blot p53, phospho-p53); assay type: cell-based, human; conditions: RCC4 and RCC4/VHL, 1.25, 2.5 and 5 μM
# Protocol: as §1, §2
# [6] = biological target: T3, MLK1 (Homo sapiens, UniProt P80192); experiment: In vitro kinase activity (Millipore KinaseProfiler): MLK1; assay type: biochemical; conditions: no head or unit printed
# T3 construct: purchased Millipore (KinaseProfiler service)
# Protocol: as §3, §4
# [7] = biological target: T4, CaMKI (Homo sapiens, UniProt Q14012); experiment: In vitro kinase activity (Millipore KinaseProfiler): CaMKI; assay type: biochemical; conditions: no head or unit printed
# T4 construct: purchased Millipore (KinaseProfiler service)
# Protocol: as §3, §4
# [8] = biological target: T5, cSRC (Homo sapiens, UniProt P12931); experiment: In vitro kinase activity (Millipore KinaseProfiler): cSRC; assay type: biochemical; conditions: no head or unit printed
# T5 construct: purchased Millipore (KinaseProfiler service)
# Protocol: as §3, §4
# T3 sequence (P80192 whole entry, species assumed): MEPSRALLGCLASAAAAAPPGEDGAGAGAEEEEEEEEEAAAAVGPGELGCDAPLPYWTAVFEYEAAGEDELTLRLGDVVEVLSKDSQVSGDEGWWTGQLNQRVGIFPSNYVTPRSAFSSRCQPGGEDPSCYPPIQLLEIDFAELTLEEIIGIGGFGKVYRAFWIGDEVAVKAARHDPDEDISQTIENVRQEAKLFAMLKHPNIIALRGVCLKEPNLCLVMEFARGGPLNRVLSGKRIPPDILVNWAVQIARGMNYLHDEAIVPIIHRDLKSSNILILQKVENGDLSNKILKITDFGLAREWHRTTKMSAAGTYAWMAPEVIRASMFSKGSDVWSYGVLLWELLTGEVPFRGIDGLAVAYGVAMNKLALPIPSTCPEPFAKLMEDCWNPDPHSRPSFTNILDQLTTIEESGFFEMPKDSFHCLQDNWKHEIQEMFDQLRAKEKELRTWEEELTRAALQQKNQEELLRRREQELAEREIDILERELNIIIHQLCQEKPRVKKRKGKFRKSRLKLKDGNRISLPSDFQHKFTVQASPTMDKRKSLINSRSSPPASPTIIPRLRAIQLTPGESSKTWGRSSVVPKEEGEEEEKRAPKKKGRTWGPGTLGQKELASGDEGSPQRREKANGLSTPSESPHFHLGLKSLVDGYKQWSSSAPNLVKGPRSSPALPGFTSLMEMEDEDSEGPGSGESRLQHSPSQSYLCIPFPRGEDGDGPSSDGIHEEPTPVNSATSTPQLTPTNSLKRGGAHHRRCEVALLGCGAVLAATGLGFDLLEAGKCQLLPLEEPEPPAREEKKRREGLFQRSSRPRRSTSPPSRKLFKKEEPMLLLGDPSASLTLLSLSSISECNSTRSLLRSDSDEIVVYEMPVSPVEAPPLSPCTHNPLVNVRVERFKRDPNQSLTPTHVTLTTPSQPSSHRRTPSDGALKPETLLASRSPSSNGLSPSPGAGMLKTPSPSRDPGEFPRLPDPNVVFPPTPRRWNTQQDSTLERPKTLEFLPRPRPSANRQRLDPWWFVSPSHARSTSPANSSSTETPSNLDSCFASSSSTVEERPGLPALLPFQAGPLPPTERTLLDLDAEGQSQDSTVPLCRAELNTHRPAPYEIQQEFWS
# T2 sequence (P53355 whole entry, species assumed): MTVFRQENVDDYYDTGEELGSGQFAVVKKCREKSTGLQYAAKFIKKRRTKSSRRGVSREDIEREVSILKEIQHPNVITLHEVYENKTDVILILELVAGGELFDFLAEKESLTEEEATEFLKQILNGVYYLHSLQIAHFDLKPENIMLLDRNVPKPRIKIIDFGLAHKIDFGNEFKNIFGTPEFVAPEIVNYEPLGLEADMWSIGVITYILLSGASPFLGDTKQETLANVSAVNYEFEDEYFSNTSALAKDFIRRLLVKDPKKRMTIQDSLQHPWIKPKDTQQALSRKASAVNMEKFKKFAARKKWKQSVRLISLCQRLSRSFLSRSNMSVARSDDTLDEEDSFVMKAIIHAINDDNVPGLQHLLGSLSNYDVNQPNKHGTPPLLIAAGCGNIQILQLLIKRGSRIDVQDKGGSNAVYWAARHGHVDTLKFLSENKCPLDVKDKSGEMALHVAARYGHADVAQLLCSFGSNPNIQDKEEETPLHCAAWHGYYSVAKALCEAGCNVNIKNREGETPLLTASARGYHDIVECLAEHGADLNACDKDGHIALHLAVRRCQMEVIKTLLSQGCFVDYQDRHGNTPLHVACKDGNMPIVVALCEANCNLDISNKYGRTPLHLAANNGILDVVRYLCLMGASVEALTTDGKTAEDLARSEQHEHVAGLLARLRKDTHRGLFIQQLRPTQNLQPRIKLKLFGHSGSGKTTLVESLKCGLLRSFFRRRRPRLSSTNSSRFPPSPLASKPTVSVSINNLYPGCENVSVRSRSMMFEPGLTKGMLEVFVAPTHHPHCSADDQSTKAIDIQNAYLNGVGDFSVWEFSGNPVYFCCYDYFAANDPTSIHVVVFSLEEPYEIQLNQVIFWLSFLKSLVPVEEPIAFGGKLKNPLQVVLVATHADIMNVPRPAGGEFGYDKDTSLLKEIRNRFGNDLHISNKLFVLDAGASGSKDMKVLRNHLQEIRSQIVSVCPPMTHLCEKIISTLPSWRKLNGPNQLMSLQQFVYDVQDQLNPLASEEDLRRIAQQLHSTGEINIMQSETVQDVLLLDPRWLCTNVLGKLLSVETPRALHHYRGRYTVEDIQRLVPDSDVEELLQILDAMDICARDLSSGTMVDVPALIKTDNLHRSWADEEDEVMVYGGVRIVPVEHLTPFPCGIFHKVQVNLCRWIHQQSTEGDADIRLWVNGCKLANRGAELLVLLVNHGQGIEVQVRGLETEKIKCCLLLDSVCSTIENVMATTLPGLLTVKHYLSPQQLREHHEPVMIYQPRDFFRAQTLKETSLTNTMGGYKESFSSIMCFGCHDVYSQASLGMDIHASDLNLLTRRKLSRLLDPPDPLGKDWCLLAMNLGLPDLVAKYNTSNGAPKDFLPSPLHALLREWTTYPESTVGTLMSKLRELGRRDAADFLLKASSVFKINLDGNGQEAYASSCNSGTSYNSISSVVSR
# T4 sequence (Q14012 whole entry): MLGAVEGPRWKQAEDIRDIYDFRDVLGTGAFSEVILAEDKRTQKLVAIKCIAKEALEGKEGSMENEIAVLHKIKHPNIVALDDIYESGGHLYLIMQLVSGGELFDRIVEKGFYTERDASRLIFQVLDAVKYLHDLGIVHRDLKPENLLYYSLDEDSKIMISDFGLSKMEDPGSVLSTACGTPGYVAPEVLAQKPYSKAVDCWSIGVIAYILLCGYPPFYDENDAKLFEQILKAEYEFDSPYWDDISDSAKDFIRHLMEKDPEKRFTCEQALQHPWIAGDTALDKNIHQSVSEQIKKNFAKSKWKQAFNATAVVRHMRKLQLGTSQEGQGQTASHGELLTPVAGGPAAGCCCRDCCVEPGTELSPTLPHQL
# T5 sequence (P12931 whole entry, species assumed): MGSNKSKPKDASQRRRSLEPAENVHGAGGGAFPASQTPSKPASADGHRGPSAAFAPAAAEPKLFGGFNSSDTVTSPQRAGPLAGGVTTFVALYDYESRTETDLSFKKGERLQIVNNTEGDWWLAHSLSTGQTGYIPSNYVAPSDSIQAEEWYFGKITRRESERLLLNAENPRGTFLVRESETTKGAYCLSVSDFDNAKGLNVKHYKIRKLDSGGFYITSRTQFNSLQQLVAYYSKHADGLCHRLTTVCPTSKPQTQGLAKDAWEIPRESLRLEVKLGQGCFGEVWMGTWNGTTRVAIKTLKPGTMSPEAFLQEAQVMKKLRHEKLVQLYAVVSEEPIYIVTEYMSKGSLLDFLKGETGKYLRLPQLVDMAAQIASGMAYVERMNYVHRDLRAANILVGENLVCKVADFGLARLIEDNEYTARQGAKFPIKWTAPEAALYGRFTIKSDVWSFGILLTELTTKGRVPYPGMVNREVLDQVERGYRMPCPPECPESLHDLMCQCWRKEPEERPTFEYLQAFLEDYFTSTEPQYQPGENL
# T1 sequence (P45983 1-384 isoform P45983-2, species assumed): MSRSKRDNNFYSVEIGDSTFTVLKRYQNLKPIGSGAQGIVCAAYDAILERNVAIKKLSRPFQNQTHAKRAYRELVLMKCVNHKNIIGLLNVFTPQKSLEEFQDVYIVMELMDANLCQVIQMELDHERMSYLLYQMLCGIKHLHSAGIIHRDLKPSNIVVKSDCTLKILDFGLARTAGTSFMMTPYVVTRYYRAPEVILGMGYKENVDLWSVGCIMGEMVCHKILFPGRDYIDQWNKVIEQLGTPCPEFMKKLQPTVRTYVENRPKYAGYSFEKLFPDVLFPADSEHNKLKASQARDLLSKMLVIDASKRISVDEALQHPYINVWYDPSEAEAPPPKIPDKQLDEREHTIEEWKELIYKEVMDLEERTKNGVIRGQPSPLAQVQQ
smiles,measurement,setting,value
"CC(C)(C)c1ccc(S(=O)(=O)NCc2ccc(C(=O)Nc3cccnc3)cc2)cc1 [Example 38, 4-((4-tert-Butylphenylsulfonamido)methyl)-N-(pyridin-3-yl)benzamide]",nuclear condensation (apoptosis),"[1]; DAPI, RCC4 and RCC4/VHL, FIG. 7C",no nuclear condensation
same,propidium iodide or annexin V staining (apoptosis),"[1]; RCC4, 5 μM, FACS, FIG. 7D",nor an increase in either propidium iodide or annexin V staining
same,hexokinase activity in RCC4/VHL,[2],unchanged
same,JNK1α1 kinase activity,[3],101
same,DAPK1 kinase activity,[4],92%
same,total p53 or phospho-p53 levels (DNA damage response),[5],did not increase
same,MLK1 kinase activity,[6],97%
same,CaMKI kinase activity,[7],87
same,cSRC kinase activity,[8],104%
